In series [1] the target is T1, β-lactamase of Enterobacter cloacae P99 (Enterobacter cloacae, UniProt P05364).
T1 construct: Class C β-lactamase as that extracted from Enterobacter cloacae P99; host or cells: Enterobacter cloacae P99 (enzyme described as extracted from this strain)
Nature of the series: Ki of conjugates, calculated using the β-lactamase of Enterobacter cloacae P99. In kind it is biochemical. The text has this: (§1) The particular mode of conjugation claimed in the present invention guarantees to maintain kinetic parameters (Km, Ki, kcat and Ka=k2/K, where Km is the enzyme Michaelis-Menten constant, Ki is the inhibitor-enzyme complex dissociation constant, kcat the catalytic constant and Ka the apparent second-order rate constant for acyl enzyme formation respectively) toward β-lactamases and penicillin detectors, which are essentially the same as those of common penicillins.
^x(Column 9): calculated using the β-lactamase of Enterobacter cloacae P99

The target of series [2] is T2, penicillin detector of the Beta-Star® Test (Bacillus licheniformis, UniProt P12287).
T2 construct: purchased UCB, Belgium (BetaSTAR kit)
Nature of the series: Ka (apparent second-order rate constant for acyl enzyme formation), calculated using the penicillin detector of the Beta-Star Test. In kind it is binding. Conditions: Ka=k2/K.
Excerpt: as §1
^□(Column 10): calculated using the penicillin detector of the Beta-Star® Test
The detector showing the best affinity for the progesterone benzylpenicillinate conjugate is the polypeptide included in the Beta-star® kit. This genetic engineering peptide has kept a very high affinity for benzylpenicillin but has no enzymatic activity. It is thus coupled to colored particles for allowing sensitive detection.

Series [3] has as its system CC(=O)C1CCC2C3CCC4=CC(=O)CCC4(C)C3C(OC(=O)c3ccc(-c4noc(C)c4C(=O)NC4C(=O)N5C4SC(C)(C)C5C(=O)O)cc3)CC12C. Nature of the series: purified protein, by the assay type. The note with it: other: conjugate; type C β-lactamase P99.
Series [4] concerns CC1(C)SC2C(NC(=O)C(C(=O)OC3CCC4C5CCC6=CC(=O)CCC6C5CCC34C)c3ccccc3)C(=O)N2C1C(=O)O. Nature of the series: purified protein, by the assay type. Conditions: other: conjugate; type C β-lactamase P99.
The subject of series [5] is O=C(Cc1cccs1)N[C@@H]1C(=O)N2C(C(=O)O)=C(/C=C/c3ccc([N+](=O)[O-])cc3[N+](=O)[O-])CS[C@H]12. Nature of the series: purified protein, by the assay type. Conditions: other: reporter substrate; type C β-lactamase P99.

T2 sequence (P12287 346-601): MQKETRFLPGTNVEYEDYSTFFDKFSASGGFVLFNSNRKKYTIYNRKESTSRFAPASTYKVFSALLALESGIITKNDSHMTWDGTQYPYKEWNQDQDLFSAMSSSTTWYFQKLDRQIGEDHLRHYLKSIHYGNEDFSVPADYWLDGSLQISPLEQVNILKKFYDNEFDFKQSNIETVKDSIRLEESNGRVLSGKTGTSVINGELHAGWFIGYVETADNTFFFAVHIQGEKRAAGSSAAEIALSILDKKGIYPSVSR
T1 sequence (P05364 21-381): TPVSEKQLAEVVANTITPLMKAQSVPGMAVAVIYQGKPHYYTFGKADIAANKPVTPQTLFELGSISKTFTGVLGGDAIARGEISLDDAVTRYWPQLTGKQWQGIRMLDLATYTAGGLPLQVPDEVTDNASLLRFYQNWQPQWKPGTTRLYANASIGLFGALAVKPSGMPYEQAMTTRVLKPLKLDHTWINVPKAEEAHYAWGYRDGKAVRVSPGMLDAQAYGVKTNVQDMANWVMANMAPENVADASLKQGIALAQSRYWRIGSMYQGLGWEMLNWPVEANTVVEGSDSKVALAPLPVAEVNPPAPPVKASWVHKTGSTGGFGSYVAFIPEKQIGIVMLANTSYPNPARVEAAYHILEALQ

Consider `Cc1onc(-c2ccc(C(=O)NCCCOC3CCC4C5CCc6cc(O)ccc6C5CCC34C)cc2)c1C(=O)NC1C(=O)N2C1SC(C)(C)C2C(=O)O` (stereo not drawn) [Conjugate 14], for which the Ki (in general, a measure of affinity in units of concentration, obtained from inhibition or displacement) in series [1] is 18 ± 23 nM. For `CC(=O)C1CCC2C3CCC4=CC(=O)CCC4(C)C3C(OC(=O)CCOc3ccc(-c4noc(C)c4C(=O)NC4C(=O)N5C4SC(C)(C)C5C(=O)O)cc3)CC12C` (stereo not drawn) [Conjugate 28], the inhibitory constant (Ki) in series [1] is 26 ± 26 nM. Consider `CC1(C)SC2C(NC(=O)Cc3ccc(CC(=O)OC4CCC5C6CCc7cc(O)ccc7C6CCC45C)cc3)C(=O)N2C1C(=O)O` (stereo not drawn) [Conjugate 30], for which the Ka in series [2] is 3.8 ± 2.9 × 10^−6 L.M^−1.

Regarding `CC(=O)C1CCC2C3CCC4=CC(=O)CCC4(C)C3C(OCCCNC(=O)c3ccc(-c4noc(C)c4C(=O)NC4C(=O)N5C4SC(C)(C)C5C(=O)O)cc3)CC12C` (stereo not drawn) [Conjugate 17], in series [1], the inhibition constant (Ki) was 21 ± 24 nM. Still for that read-out and setting: as for `Cc1onc(-c2ccc(NC(=O)CCOC3CCC4C5CCC6=CC(=O)CCC6C5CCC34C)cc2)c1C(=O)NC1C(=O)N2C1SC(C)(C)C2C(=O)O` (stereo not drawn) [Conjugate 21], the figure is 30 ± 33 nM.

For `Cc1onc(-c2ccc(OCCOC3CCC4C5CCC6=CC(=O)CCC6C5CCC34C)c(Cl)c2)c1C(=O)NC1C(=O)N2C1SC(C)(C)C2C(=O)O` (stereo not drawn) [Conjugate 11], in series [1], the Ki is 12 ± 14 nM. Same read-out and setting: as for `CC(=O)C1CCC2C3CCC4=CC(=O)CCC4(C)C3C(OC(=O)c3ccc(-c4noc(C)c4C(=O)NC4C(=O)N5C4SC(C)(C)C5C(=O)O)cc3)CC12C` (stereo not drawn) [Conjugate 7], the figure is 19 ± 27 nM; as for `Cc1onc(-c2ccc(OC(=O)CCC(=O)OC3CCC4C5CCC6=CC(=O)CCC6(C)C5CCC34C)cc2)c1C(=O)NC1C(=O)N2C1SC(C)(C)C2C(=O)O` (stereo not drawn) [Conjugate 18], 23 ± 19 nM. On to `Cc1onc(-c2ccc(OCCC(=O)OC3CCC4C5CCC6=CC(=O)CCC6C5CCC34C)cc2)c1C(=O)NC1C(=O)N2C1SC(C)(C)C2C(=O)O` (stereo not drawn) [Conjugate 25], for which the Ki in series [1] was 28 ± 31 nM. In the case of `CC(=O)C1CCC2C3CCC4=CC(=O)CCC4(C)C3C(OCCOc3ccc(-c4noc(C)c4C(=O)NC4C(=O)N5C4SC(C)(C)C5C(=O)O)cc3Cl)CC12C` (stereo not drawn) [Conjugate 13], the Ki in series [1] is 20 ± 21 nM. Same read-out and setting: as for `Cc1onc(-c2ccc(C(=O)OC3CCC4C5CCC6=CC(=O)CCC6(C)C5CCC34C)cc2)c1C(=O)NC1C(=O)N2C1SC(C)(C)C2C(=O)O` (stereo not drawn) [Conjugate 6], the figure is 22 ± 19 nM. Take “type C β-lactamase from Enterobacter cloacae P99 (Enterobacter cloacae)”: the Michaelis-Menten constant (Km) – broadly, the concentration of substrate that gives half-maximal velocity – turned out to be 0.0017 µM in series [3], 0.074 µM in series [4] and 25 µM in series [5]. Besides, the catalytic constant (kcat) (usually the maximal rate divided by the concentration of active sites) was determined as 0.01 s⁻¹ in series [3], 0.25 s⁻¹ in series [4] and 780 s⁻¹ in series [5]. Consider `CC1(C)SC2C(NC(=O)Cc3ccc(CC(=O)OC4CCC5C6CCC7=CC(=O)CCC7(C)C6CCC45C)cc3)C(=O)N2C1C(=O)O` (stereo not drawn) [Conjugate 31], for which, in series [2], the Ka is reported as 4.1 ± 3.2 × 10^−6 L.M^−1. Take `Cc1onc(-c2ccc(C(=O)NCCCCC(=O)OC3CCC4C5CCC6=CC(=O)CCC6(C)C5CCC34C)cc2)c1C(=O)NC1C(=O)N2C1SC(C)(C)C2C(=O)O` (stereo not drawn) [Conjugate 9]: in series [1], the inhibitory constant (Ki) is 17 ± 21 nM. Still for that read-out and setting: the result for `Cc1onc(-c2ccc(NC(=O)CCOC3CCC4C5CCC6=CC(=O)CCC6(C)C5CCC34C)cc2)c1C(=O)NC1C(=O)N2C1SC(C)(C)C2C(=O)O` (stereo not drawn) [Conjugate 20] reads 29 ± 27 nM; that for `Cc1onc(-c2ccc(NC(=O)CCOC3CCC4C5CCc6cc(O)ccc6C5CCC34C)cc2)c1C(=O)NC1C(=O)N2C1SC(C)(C)C2C(=O)O` (stereo not drawn) [Conjugate 23], 19 ± 21 nM. Take `Cc1onc(-c2ccc(OCCOC3CCC4C5CCC6=CC(=O)CCC6(C)C5CCC34C)c(Cl)c2)c1C(=O)NC1C(=O)N2C1SC(C)(C)C2C(=O)O` (stereo not drawn) [Conjugate 12]: the Ki in series [1] was 15 ± 16 nM. In the case of `CC1(C)SC2C(NC(=O)Cc3ccc(CC(=O)OC4CCC5C6CCc7cc(O)ccc7C6CCC45C)cc3)C(=O)N2C1C(=O)O` (stereo not drawn) [Conjugate 32], the Ka in series [2] was 4.8 ± 3.5 × 10^−6 L.M^−1. For the compound `Cc1onc(-c2ccc(C(=O)NCCCOC3CCC4C5CCC6=CC(=O)CCC6C5CCC34C)cc2)c1C(=O)NC1C(=O)N2C1SC(C)(C)C2C(=O)O` (stereo not drawn) [Conjugate 15], the Ki in series [1] is 28 ± 22 nM. The same measure, in the same setting: the result for `Cc1onc(-c2ccc(OC(=O)CCC(=O)OC3CCC4C5CCC6=CC(=O)CCC6C5CCC34C)cc2)c1C(=O)NC1C(=O)N2C1SC(C)(C)C2C(=O)O` (stereo not drawn) [Conjugate 19] reads 21 ± 24 nM; that for `Cc1onc(-c2ccc(C(=O)OC3CCC4C5CCC6=CC(=O)CCC6C5CCC34C)cc2)c1C(=O)NC1C(=O)N2C1SC(C)(C)C2C(=O)O` (stereo not drawn) [Conjugate 5], 18 ± 23 nM; that for `Cc1onc(-c2ccc(OCCOC3CCC4C5CCc6cc(O)ccc6C5CCC34C)c(Cl)c2)c1C(=O)NC1C(=O)N2C1SC(C)(C)C2C(=O)O` (stereo not drawn) [Conjugate 10], 14 ± 17 nM. The same measure, in the same setting: as for `Cc1onc(-c2ccc(OCCC(=O)OC3CCC4C5CCC6=CC(=O)CCC6(C)C5CCC34C)cc2)c1C(=O)NC1C(=O)N2C1SC(C)(C)C2C(=O)O` (stereo not drawn) [Conjugate 24], the figure is 21 ± 26 nM. Take `Cc1onc(-c2ccc(C(=O)NCCCCC(=O)OC3CCC4C5CCC6=CC(=O)CCC6C5CCC34C)cc2)c1C(=O)NC1C(=O)N2C1SC(C)(C)C2C(=O)O` (stereo not drawn) [Conjugate 8]: in series [1], the Ki was 23 ± 18 nM. For `Cc1onc(-c2ccc(C(=O)OC3CCC4C5CCc6cc(O)ccc6C5CCC34C)cc2)c1C(=O)NC1C(=O)N2C1SC(C)(C)C2C(=O)O` (stereo not drawn) [Conjugate 4], in series [1], the Ki is 24 ± 26 nM.

In the case of `Cc1onc(-c2ccc(OCCC(=O)OC3CCC4C5CCc6cc(O)ccc6C5CCC34C)cc2)c1C(=O)NC1C(=O)N2C1SC(C)(C)C2C(=O)O` (stereo not drawn) [Conjugate 29], the Ki in series [1] is 21 ± 24 nM. As for `Cc1onc(-c2ccc(C(=O)NCCCOC3CCC4C5CCC6=CC(=O)CCC6(C)C5CCC34C)cc2)c1C(=O)NC1C(=O)N2C1SC(C)(C)C2C(=O)O` (stereo not drawn) [Conjugate 16], the Ki in series [1] is 26 ± 27 nM.

In the case of `CC(=O)C1CCC2C1CC(OC(C)Cc1ccc(CC(=O)NC3C(=O)N4C3SC(C)(C)C4C(=O)O)cc1)C1C3CCC(=O)C=C3CCC21` (stereo not drawn) [Conjugate 2], the Ka in series [2] is 4.6 ± 3.0 × 10^−6 L.M^−1.

Values taken from patent US20030235877A1, “Conjugates of haptens to beta-lactam derivatives and their use for detecting and/or quantifying haptens in solution and device for implementation thereof” (priority 1996, published 2003).
